Target: ATP-dependent translocase ABCB1 (Homo sapiens, UniProt P08183)
Test: TP_TRANSPORTER: efflux in S1-B1-20 cells
Format: functional, cell-based

Chain of ATP-dependent translocase ABCB1 (P08183 whole entry): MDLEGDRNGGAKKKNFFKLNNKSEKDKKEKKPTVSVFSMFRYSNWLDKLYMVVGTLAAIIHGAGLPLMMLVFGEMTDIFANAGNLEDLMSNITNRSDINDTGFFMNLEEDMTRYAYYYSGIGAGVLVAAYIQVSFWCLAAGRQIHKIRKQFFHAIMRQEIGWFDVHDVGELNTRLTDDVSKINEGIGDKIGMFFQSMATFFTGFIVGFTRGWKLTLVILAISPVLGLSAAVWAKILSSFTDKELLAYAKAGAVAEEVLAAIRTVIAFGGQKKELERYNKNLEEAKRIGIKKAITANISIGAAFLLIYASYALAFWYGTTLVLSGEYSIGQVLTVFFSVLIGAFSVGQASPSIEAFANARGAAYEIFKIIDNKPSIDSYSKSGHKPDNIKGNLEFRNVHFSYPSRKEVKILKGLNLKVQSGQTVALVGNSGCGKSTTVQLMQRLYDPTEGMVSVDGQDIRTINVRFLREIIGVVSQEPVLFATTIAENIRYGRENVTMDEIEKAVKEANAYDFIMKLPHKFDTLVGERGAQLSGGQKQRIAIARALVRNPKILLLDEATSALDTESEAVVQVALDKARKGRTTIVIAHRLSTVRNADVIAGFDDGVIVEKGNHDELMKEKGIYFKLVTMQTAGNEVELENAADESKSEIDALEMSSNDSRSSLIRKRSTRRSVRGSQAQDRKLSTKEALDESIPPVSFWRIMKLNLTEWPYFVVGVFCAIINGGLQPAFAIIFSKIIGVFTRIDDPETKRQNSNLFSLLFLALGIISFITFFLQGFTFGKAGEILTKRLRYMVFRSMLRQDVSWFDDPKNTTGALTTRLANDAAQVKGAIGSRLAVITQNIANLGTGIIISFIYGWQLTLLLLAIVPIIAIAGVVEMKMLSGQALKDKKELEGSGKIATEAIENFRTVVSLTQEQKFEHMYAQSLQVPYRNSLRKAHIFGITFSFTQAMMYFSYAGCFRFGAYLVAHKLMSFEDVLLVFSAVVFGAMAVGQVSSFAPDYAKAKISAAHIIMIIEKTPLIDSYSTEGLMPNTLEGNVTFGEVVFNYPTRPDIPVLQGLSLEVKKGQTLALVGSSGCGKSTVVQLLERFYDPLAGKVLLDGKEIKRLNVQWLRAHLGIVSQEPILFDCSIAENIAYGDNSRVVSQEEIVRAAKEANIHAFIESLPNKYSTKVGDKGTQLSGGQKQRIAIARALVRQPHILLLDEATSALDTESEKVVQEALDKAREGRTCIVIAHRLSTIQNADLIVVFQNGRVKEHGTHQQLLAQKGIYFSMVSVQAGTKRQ

For `C(=N\NC1=NCCN1)/c1c2ccccc2c(/C=N/NC2=NCCN2)c2ccccc12` [BISANTRENE], which Activity is on record?
Its Activity is “substrate [+]”.
